Experimental data from PubChem BioAssay AID1963858 (Molecular Pharmacology Branch, DTP, NCI, 2024).

System: HOP-62 multicell spheroids with HUVEC/MSC, viability
Assay: Anticancer human tumor HOP-62 cell line growth inhibition [KRAS2];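 also: viability read after a week of compound exposure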;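 as to viability, T/C: 100% = DMSO vehicle-treated spheroids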
Conditions: for IC50: curve of first compound; for viability, T/C: stronger effect = lower value
Outline: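 Combination screen of spheroid viability in tumor-cell co-cultures with endothelial (HUVEC) and mesenchymal stem cell stroma. Each agent was tested in half-log dilutions, topping at clinical Cmax or at 10 microM without a known Cmax.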

[1] = second compound 0.1 µM, first compound 0.0316 µM
[2] = second compound 0.1 µM, first compound 0.1 µM
[3] = second compound 0.1 µM, first compound 0.316 µM
[4] = second compound 0.1 µM, first compound 1 µM
[5] = second compound 0.1 µM, first compound 3.16 µM
[6] = second compound 0.316 µM, first compound 0.0316 µM
[7] = second compound 0.316 µM, first compound 0.1 µM
[8] = second compound 0.316 µM, first compound 0.316 µM
[9] = second compound 0.316 µM, first compound 1 µM
[10] = second compound 0.316 µM, first compound 3.16 µM
[11] = second compound 1 µM, first compound 0.0316 µM
[12] = second compound 1 µM, first compound 0.1 µM
[13] = second compound 1 µM, first compound 0.316 µM
[14] = second compound 1 µM, first compound 1 µM
[15] = second compound 1 µM, first compound 3.16 µM
[16] = second compound 3.16 µM, first compound 0.0316 µM
[17] = second compound 3.16 µM, first compound 0.1 µM
[18] = second compound 3.16 µM, first compound 0.316 µM
[19] = second compound 3.16 µM, first compound 1 µM
[20] = second compound 3.16 µM, first compound 3.16 µM
[21] = second compound 10 µM, first compound 0.0316 µM
[22] = second compound 10 µM, first compound 0.1 µM
[23] = second compound 10 µM, first compound 0.316 µM
[24] = second compound 10 µM, first compound 1 µM
[25] = second compound 10 µM, first compound 3.16 µM
[26] = second compound 0.1 µM, first compound 0.01 µM
[27] = second compound 0.316 µM, first compound 0.01 µM
[28] = second compound 1 µM, first compound 0.01 µM
[29] = second compound 3.16 µM, first compound 0.01 µM

COc1cc2nccc(Oc3ccc(NC(=O)C4(C(=O)Nc5ccc(F)cc5)CC4)cc3)c2cc1OC + COc1cc2nc(C)nc(NC(C)c3cc(N)cc(C(F)(F)F)c3)c2cc1OC1CCOC1
IC50 (second compound 0.1 µM): > 10000 nM
IC50 (second compound 0.316 µM): > 10000 nM
IC50 (second compound 1 µM): > 10000 nM
IC50 (second compound 3.16 µM): 901 nM
IC50 (second compound 10 µM): 235 nM
viability, T/C [1]: 100%
viability, T/C [2]: 113%
viability, T/C [3]: 113%
viability, T/C [4]: 80.8%
viability, T/C [5]: 63.8%
viability, T/C (second compound 0.1 µM, first compound 10 µM): 123%
viability, T/C [6]: 89.4%
viability, T/C [7]: 114%
viability, T/C [8]: 126%
viability, T/C [9]: 85.8%
viability, T/C [10]: 59.4%
viability, T/C (second compound 0.316 µM, first compound 10 µM): 114%
viability, T/C [11]: 86.8%
viability, T/C [12]: 92.2%
viability, T/C [13]: 101%
viability, T/C [14]: 55.9%
viability, T/C [15]: 47%
viability, T/C (second compound 1 µM, first compound 10 µM): 97.5%
viability, T/C [16]: 71.8%
viability, T/C [17]: 94.9%
viability, T/C [18]: 81.6%
viability, T/C [19]: 46%
viability, T/C [20]: 0.59%
viability, T/C (second compound 3.16 µM, first compound 10 µM): 94%
viability, T/C [21]: 54.9%
viability, T/C [22]: 49.1%
viability, T/C [23]: 49.3%
viability, T/C [24]: 24.5%
viability, T/C [25]: 0.58%
viability, T/C (second compound 10 µM, first compound 10 µM): 73%

CC(=O)Nc1cccc(-n2c(=O)n(C3CC3)c(=O)c3c(Nc4ccc(I)cc4F)n(C)c(=O)c(C)c32)c1 + C=CC(=O)N1CCN(c2nc(OCC3CCCN3C)nc3c2CCN(c2cccc4cccc(C)c24)C3)CC1CC#N
IC50 (second compound 0.0316 µM): 1.49 nM
IC50 (second compound 0.1 µM): 1.01 nM
IC50 (second compound 0.316 µM): 0.406 nM
IC50 (second compound 1 µM): < 0.1 nM
IC50 (second compound 3.16 µM): < 0.1 nM
viability, T/C (second compound 0.0316 µM, first compound 0.0001 µM): 83.2%
viability, T/C (second compound 0.0316 µM, first compound 0.000316 µM): 75%
viability, T/C (second compound 0.0316 µM, first compound 0.001 µM): 56.2%
viability, T/C (second compound 0.0316 µM, first compound 0.00316 µM): 38.9%
viability, T/C (second compound 0.0316 µM, first compound 0.01 µM): 23.4%
viability, T/C (second compound 0.0316 µM, first compound 0.0316 µM): 25.5%
viability, T/C (second compound 0.1 µM, first compound 0.0001 µM): 64.8%
viability, T/C (second compound 0.1 µM, first compound 0.000316 µM): 60.9%
viability, T/C (second compound 0.1 µM, first compound 0.001 µM): 50.5%
viability, T/C (second compound 0.1 µM, first compound 0.00316 µM): 27.4%
viability, T/C [26]: 19.4%
viability, T/C [1]: 24.3%
viability, T/C (second compound 0.316 µM, first compound 0.0001 µM): 52.3%
viability, T/C (second compound 0.316 µM, first compound 0.000316 µM): 53.6%
viability, T/C (second compound 0.316 µM, first compound 0.001 µM): 40%
viability, T/C (second compound 0.316 µM, first compound 0.00316 µM): 18.4%
viability, T/C [27]: 15.7%
viability, T/C [6]: 17.3%
viability, T/C (second compound 1 µM, first compound 0.0001 µM): 34.4%
viability, T/C (second compound 1 µM, first compound 0.000316 µM): 28.1%
viability, T/C (second compound 1 µM, first compound 0.001 µM): 18%
viability, T/C (second compound 1 µM, first compound 0.00316 µM): 15%
viability, T/C [28]: 12.5%
viability, T/C [11]: 12.5%
viability, T/C (second compound 3.16 µM, first compound 0.0001 µM): 18.2%
viability, T/C (second compound 3.16 µM, first compound 0.000316 µM): 1.3%
viability, T/C (second compound 3.16 µM, first compound 0.001 µM): 9.7%
viability, T/C (second compound 3.16 µM, first compound 0.00316 µM): 12.7%
viability, T/C [29]: 1.72%
viability, T/C [16]: 1.33%

CC1COCCN1c1cc(-c2ccnn2C)c2ccnc(-c3ccn[nH]3)c2n1 (stereo not given) + CC1OCC2(CCN(c3cnc(Sc4ccnc(N)c4Cl)c(N)n3)CC2)C1N
IC50 (second compound 0.1 µM): 39.8 nM
IC50 (second compound 0.316 µM): 35.8 nM
IC50 (second compound 1 µM): 21.8 nM
IC50 (second compound 3.16 µM): 14.6 nM
IC50 (second compound 10 µM): < 10 nM
viability, T/C [26]: 94.7%
viability, T/C [1]: 56.7%
viability, T/C [2]: 23%
viability, T/C [3]: 12.7%
viability, T/C [4]: 11.5%
viability, T/C [5]: 13.7%
viability, T/C [27]: 87.3%
viability, T/C [6]: 53.2%
viability, T/C [7]: 23.8%
viability, T/C [8]: 14%
viability, T/C [9]: 11.9%
viability, T/C [10]: 11.9%
viability, T/C [28]: 76.6%
viability, T/C [11]: 37%
viability, T/C [12]: 20.2%
viability, T/C [13]: 13.4%
viability, T/C [14]: 10.1%
viability, T/C [15]: 8.68%
viability, T/C [29]: 59.4%
viability, T/C [16]: 30.6%
viability, T/C [17]: 18.1%
viability, T/C [18]: 11.7%
viability, T/C [19]: 9.08%
viability, T/C [20]: 9.24%
viability, T/C (second compound 10 µM, first compound 0.01 µM): 46.9%
viability, T/C [21]: 26.4%
viability, T/C [22]: 16.8%
viability, T/C [23]: 13.6%
viability, T/C [24]: 11.2%
viability, T/C [25]: 9.36%
